In US20240208957A1, “TRIAZINE DERIVATIVE AS REVERSIBLE AND IRREVERSIBLE COVALENT INHIBITORS OF PI3K” (UNIVERSITÄT BASEL, priority 2021, published 2024):

Key:
[1] = Intrinsic reactivity of the inhibitors with βME measured with HPLC; assay type: physicochemical; details: 1 mM inhibitor + 600 mM βME, n = 3, mean
Description: E˜I→EI • ii) off-target reactions with ubiquitous sulfhydryls (S) and other nucleophils present in physiologic environments such as cells and body fluids are driven by the intrinsic reactivity of the warhead that is defined by Kchem driving the conversion of S and I to form the sulfhydryl-adduct (SI) [table]

[2] = biological target: p110α (PI3Kα) (Homo sapiens, UniProt P42336); assay: LanthaScreen determination of kinetic constants (kinact, Ki) for p110α; assay type: binding; details: for kinact/KI: PI3Kα, read-out: kinact/Ki; for Ki: dissociation constant of the first reversible binding, mean of 3; for kinact: mean of 3 independent measurements, global fitting with KinTek, read-out: kinact PI3Kα;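 for all read-outs here: covalent inhibition constants for p110α come from LanthaScreen data, fitted globally by numerical integration in KinTek Global Kinetic Explorer software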
[3] = tested on: pSer473 of PKB/Akt in SKOV3 cells; assay: In-Cell Western cellular PI3K signaling, pSer473 of PKB/Akt in SKOV3 cells; assay type: cell-based; details: Homo sapiens, SK-OV-3; SKOV3 cells; mean of 2 or 3 independent measurements; read-out: IC50 pPKB (S473) SKOV3
Protocol: Protein phosphorylation was detected as follows: pSer473 of PKB/Akt with rabbit polyclonal antibody from Cell Signaling Technology (CST) (#4058) by In-Cell Western assays, where 1.2×10^4 SKOV3 cells/well in 96-well plates were plated (Cell Carrier, PerkinElmer) for 24 hours (37° C., 5% CO2), as described in Ref.^21.

Sequence of p110α (PI3Kα) (P42336 whole entry): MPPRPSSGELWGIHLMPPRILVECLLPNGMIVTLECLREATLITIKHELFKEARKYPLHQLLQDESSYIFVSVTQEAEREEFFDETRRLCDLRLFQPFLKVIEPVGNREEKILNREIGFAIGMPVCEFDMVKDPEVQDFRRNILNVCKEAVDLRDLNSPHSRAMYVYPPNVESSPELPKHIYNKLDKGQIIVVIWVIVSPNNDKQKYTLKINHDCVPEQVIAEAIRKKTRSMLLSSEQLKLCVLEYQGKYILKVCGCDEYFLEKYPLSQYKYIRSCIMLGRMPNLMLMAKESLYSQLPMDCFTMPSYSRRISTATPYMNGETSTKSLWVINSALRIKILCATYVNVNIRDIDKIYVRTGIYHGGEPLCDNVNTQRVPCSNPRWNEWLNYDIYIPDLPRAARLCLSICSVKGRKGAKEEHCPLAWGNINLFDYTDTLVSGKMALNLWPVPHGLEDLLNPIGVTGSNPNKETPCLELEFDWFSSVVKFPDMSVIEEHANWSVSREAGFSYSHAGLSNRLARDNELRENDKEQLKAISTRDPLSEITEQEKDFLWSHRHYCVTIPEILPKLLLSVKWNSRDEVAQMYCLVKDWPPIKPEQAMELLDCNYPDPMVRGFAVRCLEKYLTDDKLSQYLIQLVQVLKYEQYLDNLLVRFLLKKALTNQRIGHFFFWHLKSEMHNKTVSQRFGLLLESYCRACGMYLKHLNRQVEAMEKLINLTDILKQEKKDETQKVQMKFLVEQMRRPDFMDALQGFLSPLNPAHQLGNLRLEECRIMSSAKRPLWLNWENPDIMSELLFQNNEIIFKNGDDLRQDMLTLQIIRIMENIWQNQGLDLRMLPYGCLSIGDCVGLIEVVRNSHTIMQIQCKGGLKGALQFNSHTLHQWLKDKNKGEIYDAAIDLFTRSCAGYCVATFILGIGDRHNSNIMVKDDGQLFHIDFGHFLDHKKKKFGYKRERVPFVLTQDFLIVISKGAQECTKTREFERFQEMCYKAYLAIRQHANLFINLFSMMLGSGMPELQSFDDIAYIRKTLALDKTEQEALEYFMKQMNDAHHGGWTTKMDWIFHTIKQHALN
Sequence of p110α (PI3Kα) (P27986 whole entry partner): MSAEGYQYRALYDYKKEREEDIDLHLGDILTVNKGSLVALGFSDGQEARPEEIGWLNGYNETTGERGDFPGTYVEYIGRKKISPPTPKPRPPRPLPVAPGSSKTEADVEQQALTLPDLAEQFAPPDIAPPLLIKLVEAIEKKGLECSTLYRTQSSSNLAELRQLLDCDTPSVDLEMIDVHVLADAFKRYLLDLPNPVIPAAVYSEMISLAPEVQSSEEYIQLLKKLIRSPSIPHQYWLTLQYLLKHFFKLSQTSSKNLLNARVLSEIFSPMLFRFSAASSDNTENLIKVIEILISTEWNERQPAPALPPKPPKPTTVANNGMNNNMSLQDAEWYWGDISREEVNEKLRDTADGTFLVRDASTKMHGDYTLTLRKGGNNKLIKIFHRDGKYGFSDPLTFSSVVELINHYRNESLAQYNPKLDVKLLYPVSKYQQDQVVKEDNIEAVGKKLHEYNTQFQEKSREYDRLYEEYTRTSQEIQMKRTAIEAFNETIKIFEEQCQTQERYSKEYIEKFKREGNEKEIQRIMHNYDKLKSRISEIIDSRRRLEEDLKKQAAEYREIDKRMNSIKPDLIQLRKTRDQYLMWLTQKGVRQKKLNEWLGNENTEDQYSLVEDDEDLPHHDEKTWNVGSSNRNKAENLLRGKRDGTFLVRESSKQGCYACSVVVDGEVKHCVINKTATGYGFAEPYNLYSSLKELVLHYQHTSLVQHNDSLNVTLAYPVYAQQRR

Row | Structure (SMILES) | kinact/KI [2] [M⁻¹ s⁻¹] | Ki [2] [nM] | kinact [2] [s⁻¹] | IC50 [3] [nM] | kchem [1] [M⁻¹ s⁻¹]
1 | C=CC(=O)N1CCCC[C@H]1C(=O)NCC(=O)N1CCN(c2nc(-c3cnc(N)nc3C(F)F)nc(N3CCOCC3)n2)CC1 [Compound 20, (S)-1-acryloyl-N-(2-(4-(4-(2-amino-4-(difluoromethyl)pyrimidin-5-yl)-6-morpholino-1,3,5-triazin-2-yl)piperazin-1-yl)-2-oxoethyl)piperidine-2-carboxamide] | 212000 | 3.06 | 0.00065 | 59.3 | 0.00444
2 | C=CC(=O)N1CCC[C@H](C(=O)N(C)CC(=O)N2CCN(c3nc(-c4cnc(N)nc4C(F)F)nc(N4CCOCC4)n3)CC2)C1 [Compound 17, (S)-1-acryloyl-N-(2-(4-(4-(2-amino-4-(difluoromethyl)pyrimidin-5-yl)-6-morpholino-1,3,5-triazin-2-yl)piperazin-1-yl)-2-oxoethyl)-N-methylpiperidine-3-carboxamide] | 32700 | 7.66 | 0.000251 | 85.7 | 0.00068
3 | C=CC(=O)N1CCC[C@@H](C(=O)NCC(=O)N2CCN(c3nc(-c4cnc(N)nc4C(F)F)nc(N4CCOCC4)n3)CC2)C1 [Compound 16, (R)-1-acryloyl-N-(2-(4-(4-(2-amino-4-(difluoromethyl)pyrimidin-5-yl)-6-morpholino-1,3,5-triazin-2-yl)piperazin-1-yl)-2-oxoethyl)piperidine-3-carboxamide] | 914000 | 3.89 | 0.00356 | 27.5 | 0.00076
4 | C=CC(=O)N1CCCC[C@@H]1C(=O)NCC(=O)N1CCN(c2nc(-c3cnc(N)nc3C(F)F)nc(N3CCOCC3)n2)CC1 [Compound 21, (R)-1-acryloyl-N-(2-(4-(4-(2-amino-4-(difluoromethyl)pyrimidin-5-yl)-6-morpholino-1,3,5-triazin-2-yl)piperazin-1-yl)-2-oxoethyl)piperidine-2-carboxamide] | 227000 | 3.85 | 0.000875 | 89.8 | 0.00469
5 | C=CC(=O)N1CCCC[C@H]1C(=O)N(C)CC(=O)N1CCN(c2nc(-c3cnc(N)nc3C(F)F)nc(N3CCOCC3)n2)CC1 [Compound 22, (S)-1-acryloyl-N-(2-(4-(4-(2-amino-4-(difluoromethyl)pyrimidin-5-yl)-6-morpholino-1,3,5-triazin-2-yl)piperazin-1-yl)-2-oxoethyl)-N-methylpiperidine-2-carboxamide] | 54000 | 5.74 | 0.000309 | 29.3 | 0.00094
6 | C=CC(=O)N1CCC[C@H]1C(=O)N(C)CC(=O)N1CCN(c2nc(-c3cnc(N)nc3C(F)F)nc(N3CCOCC3)n2)CC1 [Compound 30, (S)-1-acryloyl-N-(2-(4-(4-(2-amino-4-(difluoromethyl)pyrimidin-5-yl)-6-morpholino-1,3,5-triazin-2-yl)piperazin-1-yl)-2-oxoethyl)-N-methylpyrrolidine-2-carboxamide] |  |  |  |  | 0.00058

Further lines, with some results ahead:

Row | kinact/KI [2] [M⁻¹ s⁻¹] | Ki [2] [nM] | kinact [2] [s⁻¹] | IC50 [3] [nM] | Structure (SMILES) | kchem [1] [M⁻¹ s⁻¹]
7 | 27200 | 8.47 | 0.000231 | 60.5 | C=CC(=O)N1CCCC[C@@H]1C(=O)N(C)CC(=O)N1CCN(c2nc(-c3cnc(N)nc3C(F)F)nc(N3CCOCC3)n2)CC1 [Compound 23, (R)-1-acryloyl-N-(2-(4-(4-(2-amino-4-(difluoromethyl)pyrimidin-5-yl)-6-morpholino-1,3,5-triazin-2-yl)piperazin-1-yl)-2-oxoethyl)-N-methylpiperidine-2-carboxamide] | 0.001
8 | 150000 | 5.28 | 0.000789 | 227 | C=CC(=O)N1CC[C@H](C(=O)N(C)CC(=O)N2CCN(c3nc(-c4cnc(N)nc4C(F)F)nc(N4CCOCC4)n3)CC2)C1 [Compound 26, (S)-1-acryloyl-N-(2-(4-(4-(2-amino-4-(difluoromethyl)pyrimidin-5-yl)-6-morpholino-1,3,5-triazin-2-yl)piperazin-1-yl)-2-oxoethyl)-N-methylpyrrolidine-3-carboxamide] | 0.0005
9 |  |  |  | 175 | C=CC(=O)N1CC(C(=O)NCC(=O)N2CCN(c3nc(-c4cnc(N)nc4C(F)F)nc(N4CCOCC4)n3)CC2)C1 [Compound 32, 1-acryloyl-N-(2-(4-(4-(2-amino-4-(difluoromethyl)pyrimidin-5-yl)-6-morpholino-1,3,5-triazin-2-yl)piperazin-1-yl)-2-oxoethyl)azetidine-3-carboxamide] | 0.00517
10 | 44500 | 6.32 | 0.000281 | 301 | C=CC(=O)N1CCC[C@H]1C(=O)NCC(=O)N1CCN(c2nc(-c3cnc(N)nc3C(F)F)nc(N3CCOCC3)n2)CC1 [Compound 28, (S)-1-acryloyl-N-(2-(4-(4-(2-amino-4-(difluoromethyl)pyrimidin-5-yl)-6-morpholino-1,3,5-triazin-2-yl)piperazin-1-yl)-2-oxoethyl)pyrrolidine-2-carboxamide] | 0.00655
11 | 40700 | 6.74 | 0.000275 | 204 | C=CC(=O)N1CCC[C@@H]1C(=O)NCC(=O)N1CCN(c2nc(-c3cnc(N)nc3C(F)F)nc(N3CCOCC3)n2)CC1 [Compound 29, (R)-1-acryloyl-N-(2-(4-(4-(2-amino-4-(difluoromethyl)pyrimidin-5-yl)-6-morpholino-1,3,5-triazin-2-yl)piperazin-1-yl)-2-oxoethyl)pyrrolidine-2-carboxamide] | 0.0079
12 |  |  |  | 447 | C=CC(=O)N1CCC[C@@H]1C(=O)N(C)CC(=O)N1CCN(c2nc(-c3cnc(N)nc3C(F)F)nc(N3CCOCC3)n2)CC1 [Compound 31, (R)-1-acryloyl-N-(2-(4-(4-(2-amino-4-(difluoromethyl)pyrimidin-5-yl)-6-morpholino-1,3,5-triazin-2-yl)piperazin-1-yl)-2-oxoethyl)-N-methylpyrrolidine-2-carboxamide] | 0.00052
13 |  |  |  | 196 | C=CC(=O)N1CC(C(=O)N(C)CCC(=O)N2CCN(c3nc(-c4cnc(N)nc4C(F)F)nc(N4CCOCC4)n3)CC2)C1 [Compound 37, 1-acryloyl-N-(3-(4-(4-(2-amino-4-(difluoromethyl)pyrimidin-5-yl)-6-morpholino-1,3,5-triazin-2-yl)piperazin-1-yl)-3-oxopropyl)-N-methylazetidine-3-carboxamide] | 0.00636
14 |  |  |  | 82 | C=CC(=O)N1CCC(C(=O)NCC(=O)N2CCN(c3nc(-c4cnc(N)nc4C(F)F)nc(N4CCOCC4)n3)CC2)CC1 [Compound 44, 1-acryloyl-N-(2-(4-(4-(2-amino-4-(difluoromethyl)pyrimidin-5-yl)-6-morpholino-1,3,5-triazin-2-yl)piperazin-1-yl)-2-oxoethyl)piperidine-4-carboxamide] | 0.00037
15 |  |  |  | 86 | C=CC(=O)N1CCC(C(=O)N(C)CC(=O)N2CCN(c3nc(-c4cnc(N)nc4C(F)F)nc(N4CCOCC4)n3)CC2)CC1 [Compound 45, 1-acryloyl-N-(2-(4-(4-(2-amino-4-(difluoromethyl)pyrimidin-5-yl)-6-morpholino-1,3,5-triazin-2-yl)piperazin-1-yl)-2-oxoethyl)-N-methylpiperidine-4-carboxamide] | 0.000354
